Experiments:
BCS classification = format: physicochemical
HCV RNA = test: Emax PK/PD modeling of sofosbuvir exposure vs HCV RNA change from baseline; format: in vivo; conditions: 400 mg sofosbuvir dose
Method: The sofosbuvir dose selected for the tablet formulation is 400 mg once daily. Support for the 400 mg sofosbuvir dose can be derived from Emax PK/PD modeling with early virological and human exposure data which also supports the selection of a 400 mg sofosbuvir dose over others tested.
The mean sofosbuvir major metabolite AUCtau for the 400 mg sofosbuvir dose is associated with approximately 77% of the maximal HCV RNA change from baseline achievable as determined by this model, a value which is on the cusp of the plateau of the exposure-response sigmoidal curve. In a sigmoidal Emax model, there is a relatively linear exposure-response relationship in the 20 to 80% maximal effect range. Therefore, given that sofosbuvir exposure with 200 mg tablets appears dose-proportional with single doses up to 1200 mg, doses below 400 mg are expected to yield considerable reductions in the magnitude of HCV RNA change from baseline.

[1] = Photostability (light exposure, ICH Q1B); format: physicochemical; conditions: for Total Imp./Deg. Products (%): tablets
Method: In some embodiments, and the Examples presented herein, the tablet formulation includes sofosbuvir having Form 6 and, optionally, a trace amount of Form 7.
Tablet cores and film-coated tablets were evaluated per ICH Q1B guidelines with a total of illumination of more than 1.2 million-lux hours and a total irradiance of more than 200 W·hr/m^2.

[2] = Tablet dissolution in 50 mM sodium acetate buffer pH 5.0 with 2.0% w/v Polysorbate 80 and 0.001% w/v BHT, 75 rpm, 900 mL, 37° C., USP Type II; format: physicochemical

CC(C)OC(=O)C(C)N[P@](=O)(OC[C@H]1O[C@@H](n2ccc(=O)[nH]c2=O)[C@](C)(F)[C@@H]1O)Oc1ccccc1 (stereo in doubt) [Sofosbuvir, (S)-isopropyl 2-(((S)-(((2R,3R,4R,5R)-5-(2,4-dioxo-3,4-dihydropyrimidin-1(2H)-yl)-4-fluoro-3-hydroxy-4-methyltetrahydrofuran-2-yl)methoxy)(phenoxy)phosphoryl)amino)propanoate]
aqueous solubility, pH dependence (BCS classification): high and pH-independent aqueous solubility | fraction of the maximal HCV RNA change from baseline achievable (Emax model) associated with mean major metabolite AUCtau (HCV RNA): approximately 77% | level of degradation products ([1]; tablets film-coated to weight gains of 2.1 to 5.4%, ICH Q1B): 0.0% | Total Imp./Deg. Products (%) ([1]; film-coating 0% weight gain, Exposed to Light): 0.0% | Total Imp./Deg. Products (%) ([1]; film-coating 0% weight gain, Protected from Light): 0.0% | Total Imp./Deg. Products (%) ([1]; film-coating 2.1% weight gain, Exposed to Light): 0.0% | Total Imp./Deg. Products (%) ([1]; film-coating 2.1% weight gain, Protected from Light): 0.0% | Total Imp./Deg. Products (%) ([1]; film-coating 3.4% weight gain, Exposed to Light): 0.0% | Total Imp./Deg. Products (%) ([1]; film-coating 3.4% weight gain, Protected from Light): 0.0% | Total Imp./Deg. Products (%) ([1]; film-coating 4.1% weight gain, Exposed to Light): 0.0% | Total Imp./Deg. Products (%) ([1]; film-coating 4.1% weight gain, Protected from Light): 0.0% | Total Imp./Deg. Products (%) ([1]; film-coating 5.4% weight gain, Exposed to Light): 0.0% | Total Imp./Deg. Products (%) ([1]; film-coating 5.4% weight gain, Protected from Light): 0.0% | Dissolved at 30 min (%) ([2]; Batch C tablets, closed 1 g desiccant, 25° C./60% RH, 6 months): 99% | Dissolved at 30 min (%) ([2]; Batch C tablets, closed 1 g desiccant, 30° C./75% RH, 3 months): 99% | Dissolved at 30 min (%) ([2]; Batch C tablets, closed 1 g desiccant, 40° C./75% RH, 3 months): 100% | Dissolved at 30 min (%) ([2]; Batch C tablets, closed 1 g desiccant, 40° C./75% RH, 6 months): 99% | Dissolved at 30 min (%) ([2]; Lot A tablets (super-potent VEL SSD, super-potent VOX SSD), Initial, time 0): 100% | Dissolved at 30 min (%) ([2]; Lot A tablets (super-potent VEL SSD, super-potent VOX SSD), closed, 1 g desiccant, 25° C./60% RH, 12 weeks): 99% | Dissolved at 30 min (%) ([2]; Lot A tablets (super-potent VEL SSD, super-potent VOX SSD), closed, 1 g desiccant, 40° C./75% RH, 12 weeks): 100% | Dissolved at 30 min (%) ([2]; Lot B tablets (sub-potent VEL SSD, sub-potent VOX SSD), Initial, time 0): 83% | Dissolved at 30 min (%) ([2]; Lot B tablets (sub-potent VEL SSD, sub-potent VOX SSD), closed, 1 g desiccant, 25° C./60% RH, 12 weeks): 82% | Dissolved at 30 min (%) ([2]; Lot B tablets (sub-potent VEL SSD, sub-potent VOX SSD), closed, 1 g desiccant, 40° C./75% RH, 4 weeks): 85% | Dissolved at 30 min (%) ([2]; Lot B tablets (sub-potent VEL SSD, sub-potent VOX SSD), closed, 1 g desiccant, 40° C./75% RH, 12 weeks): 84% | Dissolved at 30 min (%) ([2]; Lot B tablets (sub-potent VEL SSD, sub-potent VOX SSD), open, no cap, 40° C./75% RH, 4 weeks): 100% | Dissolved at 30 min (%) ([2]; Lot C tablets (sub-potent VEL SSD, super-potent VOX SSD), Initial, time 0): 99% | Dissolved at 30 min (%) ([2]; Lot C tablets (sub-potent VEL SSD, super-potent VOX SSD), closed, 1 g desiccant, 25° C./60% RH, 12 weeks): 98% | Dissolved at 30 min (%) ([2]; Lot C tablets (sub-potent VEL SSD, super-potent VOX SSD), closed, 1 g desiccant, 40° C./75% RH, 4 weeks): 100% | Dissolved at 30 min (%) ([2]; Lot C tablets (sub-potent VEL SSD, super-potent VOX SSD), closed, 1 g desiccant, 40° C./75% RH, 12 weeks): 98% | Dissolved at 30 min (%) ([2]; Lot C tablets (sub-potent VEL SSD, super-potent VOX SSD), open, no cap, 40° C./75% RH, 4 weeks): 99% | Dissolved at 30 min (%) ([2]; Lot D tablets (super-potent VEL SSD, sub-potent VOX SSD), closed, 1 g desiccant, 25° C./60% RH, 12 weeks): 98% | Dissolved at 30 min (%) ([2]; Lot D tablets (super-potent VEL SSD, sub-potent VOX SSD), closed, 1 g desiccant, 40° C./75% RH, 4 weeks): 98% | Dissolved at 30 min (%) ([2]; Lot D tablets (super-potent VEL SSD, sub-potent VOX SSD), closed, 1 g desiccant, 40° C./75% RH, 12 weeks): 98% | Dissolved at 30 min (%) ([2]; Lot D tablets (super-potent VEL SSD, sub-potent VOX SSD), open, no cap, 40° C./75% RH, 4 weeks): 99% | dissolution at 30 minutes ([2]; SSD potency tablets Lot B, after 4 weeks open at 40° C./75% RH): 100% | released at 30 minutes ([2]; tablet Lots A and B made with different sofosbuvir particle size distributions): 101% | Dissolved at 30 min (%) ([2]; tablets Batch A, 25° C./60% RH, 3 mo): 98% | Dissolved at 30 min (%) ([2]; tablets Batch A, 25° C./60% RH, 6 mo): 98% | Dissolved at 30 min (%) ([2]; tablets Batch A, 30° C./75% RH, 3 mo): 98% | Dissolved at 30 min (%) ([2]; tablets Batch A, 40° C./75% RH, 1 mo): 98% | Dissolved at 30 min (%) ([2]; tablets Batch A, 40° C./75% RH, 6 mo): 100% | Dissolved at 30 min (%) ([2]; tablets Batch B, 25° C./60% RH, 3 mo): 99% | Dissolved at 30 min (%) ([2]; tablets Batch B, 25° C./60% RH, 6 mo): 99% | Dissolved at 30 min (%) ([2]; tablets Batch B, 30° C./75% RH, 3 mo): 99% | Dissolved at 30 min (%) ([2]; tablets Batch B, 30° C./75% RH, 6 mo): 99% | Dissolved at 30 min (%) ([2]; tablets Batch B, 40° C./75% RH, 1 mo): 100% | Dissolved at 30 min (%) ([2]; tablets Batch B, 40° C./75% RH, 3 mo): 100% | Dissolved at 30 min (%) ([2]; tablets Batch B, Initial, 0 mo): 99% | Dissolved at 30 min (%) ([2]; tablets Batch D, Initial, 0 mo): 100% | Dissolved at 30 min (%) ([2]; tablets from VEL SSD 7.0% / VOX SSD 3.2% water content, Initial, time 0): 100% | Dissolved at 30 min (%) ([2]; tablets from VEL SSD 7.0% / VOX SSD 3.2% water content, closed, 1 g desiccant, 25° C./60% RH, 12 weeks): 98% | Dissolved at 30 min (%) ([2]; tablets from VEL SSD 7.0% / VOX SSD 3.2% water content, closed, 1 g desiccant, 40° C./75% RH, 12 weeks): 99% | Dissolved at 30 min (%) ([2]; tablets from VEL SSD 7.0% / VOX SSD 3.2% water content, open, no desiccant, 40° C./75% RH, 4 weeks): 100% | Dissolved at 30 min (%) ([2]; tablets from copovidone with 544 ppm (VEL SSD) / 655 ppm (VOX SSD) peroxides, Initial, time 0): 99% | Dissolved at 30 min (%) ([2]; tablets from copovidone with 544 ppm (VEL SSD) / 655 ppm (VOX SSD) peroxides, closed, 1 g desiccant, 25° C./60% RH, 12 weeks): 99% | Dissolved at 30 min (%) ([2]; tablets from copovidone with 544 ppm (VEL SSD) / 655 ppm (VOX SSD) peroxides, closed, 1 g desiccant, 40° C./75% RH, 4 weeks): 99% | Dissolved at 30 min (%) ([2]; tablets from copovidone with 544 ppm (VEL SSD) / 655 ppm (VOX SSD) peroxides, closed, 1 g desiccant, 40° C./75% RH, 12 weeks): 99% | Dissolved at 30 min (%) ([2]; tablets from copovidone with 544 ppm (VEL SSD) / 655 ppm (VOX SSD) peroxides, open, no desiccant, 40° C./75% RH, 4 weeks): 100% | Dissolved at 30 min (%) ([2]; tablets, desiccant study, closed, 1 g desiccant, 40° C./75% RH, 4 weeks): 99% | Dissolved at 30 min (%) ([2]; tablets, desiccant study, closed, 1 g desiccant, 40° C./75% RH, 12 weeks): 99% | Dissolved at 30 min (%) ([2]; tablets, desiccant study, closed, 1 g desiccant, 40° C./75% RH, 24 weeks): 100% | Dissolved at 30 min (%) ([2]; tablets, desiccant study, closed, no desiccant, 25° C./60% RH, 12 weeks): 99% | Dissolved at 30 min (%) ([2]; tablets, desiccant study, closed, no desiccant, 40° C./75% RH, 12 weeks): 99%
